Measured values reported in patent publication US6696481B2, “Salt of perindopril and pharmaceutical compositions containing it” (Les Laboratoires Servier, priority 2003, dated 2004).

Experiments:
[1] = Shelf-life of tablets / pharmaceutical compositions; format: physicochemical
Text: However, in view of the intrinsic fragility of perindopril, the tert-butylamine salt has not been capable of providing a complete solution to the problems of the product's stability to heat and humidity. Indeed, for marketing, tablets of perindopril tert-butylamine salt must, in certain countries, be protected with additional packaging measures. Moreover, even for temperate-climate countries, that instability has made it impossible to obtain a shelf-life of more than 2 years for the tablets. Finally, for marketing of the tablets, they have to be marked “to be stored at a temperature less than or equal to 30 degrees”.

[2] = Long-term stability study of immediate-release tablets, perindopril assayed by inverse-phase HPLC; format: physicochemical; details: for Percentage remaining (%): 6 months; for degradation rate: after 6 months
Experimental: Long-term stability studies carried out under very precise temperature and humidity conditions have yielded the results indicated in the Table hereinbelow.
In that study, perindopril was assayed by inverse-phase high-pressure liquid chromatography using, as eluant, an aqueous phase (comprising sodium heptane-sulphonate, and the pH of which is 2) and acetonitrile (67/33). Detection of the product was carried out by UV (215 nm).
The study was carried out using immediate-release tablets containing either 2.4 mg of the arginine salt of perindopril or 2.0 mg of the tert-butylamine salt of perindopril (each of the two tablets containing 1.7 mg of perindopril). The tablets were assayed 6 months after the start of storage of the tablets at different temperatures and different relative humidities (% R.H.).
The arginine salt used in this study is the L-arginine salt. It has been prepared according to a classical method of salification of organic chemistry.

| Compound | shelf-life ([1]; pharmaceutical compositions, considered from the 6-month results) | Percentage remaining (%) ([2]; 25° C., 60% R.H.) | Percentage remaining (%) ([2]; 30° C., 60% R.H.) | Percentage remaining (%) ([2]; 40° C., 75% R.H.) | degradation rate [2] | shelf-life ([1]; tablets, temperate-climate countries) [years] |
| --- | --- | --- | --- | --- | --- | --- |
| CCC[C@H](N[C@@H](C)C(=O)N1[C@H](C(=O)O)C[C@@H]2CCCC[C@@H]21)C(=O)OCC.N=C(N)NCCC[C@H](N)C(=O)O [Arginine salt of perindopril] | at least three years | 99.5 | 98.1 | 98.6 | practically no degradation | – |
| CC(C)(C)N.CCC[C@H](N[C@@H](C)C(=O)N1[C@H](C(=O)O)C[C@@H]2CCCC[C@@H]21)C(=O)OCC [tert-Butylamine salt of perindopril] | – | 101.0 | 94.4 | 67.2 | approximately 33% | ≤ 2 |
